From US9770446B2, “Piperidine urea derivatives” (MERCK PATENT GMBH, priority 2013, dated 2017)

Target: T1, His-tagged Parp-1 (Homo sapiens, UniProt P09874)
T1 construct: purchased Enzo Life Sciences GmbH, Lörrach, Germany
Assay: PARP-1 autoparsylation HTRF assay
Format: biochemical
Excerpt: Description of the PARP1 Assay
Biochemical Activity Testing of PARP-1: Autoparsylation Assay
The autoparsylation assay is run in two steps: the enzymatic reaction in which His-tagged Parp-1 transfers biotinylated ADP-ribose/ADP-ribose to itself from biotinylated NAD/NAD as co-substrate and the detection reaction where a time resolved FRET between cryptate labelled anti-His antibody bound to the His tag of the enzyme and Xlent® labelled-streptavidin bound the biotin-parsylation residue is analysed. The autoparsylation activity is detectable directly via the increase in HTRF signal.
The autoparsylation assay is performed as 384-well HTRF® (Cisbio, Codolet, France) assay format in Greiner low volume nb 384-well microtiter plates. 35 nM His-tagged Parp-1 (human, recombinant, Enzo Life Sciences GmbH, Lörrach, Germany) and a mixture of 125 nM bio-NAD (Biolog, Life science Inst., Bremen, Germany) and 800 nM NAD as co-substrate are incubated in a total volume of 6 μl (100 mM Tris/HCl, 4 mM Mg-chloride, 0.01% IGEPAL® CA630, 1 mM DTT, 0.5% DMSO, pH 8, 13 ng/μl activated DNA (BPS Bioscience, San Diego, US)) in the absence or presence of the test compound (10 dilution concentrations) for 150 min at 23° C. The reaction is stopped by the addition of 4 μl of the Stop/detection solution (70 nM SA-Xlent® (Cisbio, Codolet, France), 2.5 nM Anti-His-K® (Eu-labelled anti-His, Cisbio, Codolet, France) in 50 mM HEPES, 400 mM KF, 0.1% BSA, 20 mM EDTA, pH 7.0). After 1 h incubation at room temperature the HTRF iss measured with an Envision multimode reader (Perkin Elmer LAS Germany GmbH) at excitation wavelength 340 nm (laser mode) and emission wavelengths 615 nm and 665 nm. The ratio of the emission signals is determined. The full value used is the inhibitor-free reaction. The pharmacological zero value used is Olaparib (LClabs, Woburn, US) in a final concentration of 1 μM. The inhibitory values (IC50) are determined using either the program Symyx Assay Explorer® or Condosseo® from GeneData.

T1 sequence (P09874 whole entry): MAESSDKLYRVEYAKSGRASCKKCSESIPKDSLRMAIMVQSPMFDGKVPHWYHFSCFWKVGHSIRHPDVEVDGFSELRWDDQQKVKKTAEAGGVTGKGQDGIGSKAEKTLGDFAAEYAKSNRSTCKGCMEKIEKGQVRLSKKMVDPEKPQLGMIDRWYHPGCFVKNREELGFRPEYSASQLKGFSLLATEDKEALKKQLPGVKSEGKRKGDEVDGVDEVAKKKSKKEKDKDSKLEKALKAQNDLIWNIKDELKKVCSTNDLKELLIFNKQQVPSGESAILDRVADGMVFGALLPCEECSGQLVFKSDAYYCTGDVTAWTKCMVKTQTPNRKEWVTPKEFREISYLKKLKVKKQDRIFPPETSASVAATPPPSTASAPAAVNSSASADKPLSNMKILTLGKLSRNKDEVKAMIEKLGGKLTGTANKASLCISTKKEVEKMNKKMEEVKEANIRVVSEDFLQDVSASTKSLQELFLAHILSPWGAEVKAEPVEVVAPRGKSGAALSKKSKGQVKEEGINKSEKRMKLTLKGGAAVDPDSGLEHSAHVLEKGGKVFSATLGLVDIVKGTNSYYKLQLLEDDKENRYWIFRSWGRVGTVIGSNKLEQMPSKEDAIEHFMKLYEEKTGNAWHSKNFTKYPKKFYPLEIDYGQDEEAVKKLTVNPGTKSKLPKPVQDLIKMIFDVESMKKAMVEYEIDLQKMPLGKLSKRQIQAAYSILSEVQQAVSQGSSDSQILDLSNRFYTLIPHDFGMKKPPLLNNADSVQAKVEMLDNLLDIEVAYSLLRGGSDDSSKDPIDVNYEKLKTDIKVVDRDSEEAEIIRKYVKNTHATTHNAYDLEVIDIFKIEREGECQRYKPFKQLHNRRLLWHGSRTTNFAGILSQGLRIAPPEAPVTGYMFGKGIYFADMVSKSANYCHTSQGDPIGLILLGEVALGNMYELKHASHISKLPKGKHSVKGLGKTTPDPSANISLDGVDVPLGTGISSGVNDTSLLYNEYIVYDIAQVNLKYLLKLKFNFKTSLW

| Structure (SMILES) | IC50 [µM] |
| --- | --- |
| Cc1cccc(N(C)C(=O)N2CCC(C(=O)c3ccccc3)CC2)c1 [Compound A1, 4-benzoyl-piperidine-1-carboxylic acid methyl-m-tolyl-amide] | 3 to 50 |
| Cc1ccc(N(C)C(=O)N2CCC(C(=O)c3ccccc3)CC2)cc1 [Compound A2, 4-benzoyl-piperidine-1-carboxylic acid methyl-p-tolyl-amide] | 3 to 50 |
| COc1ccc(N(C)C(=O)N2CCC(C(=O)c3ccccc3)CC2)cc1 [Compound A4, 4-benzoyl-piperidine-1-carboxylic acid (4-methoxy-phenyl)-methyl-amide] | 3 to 50 |
| COc1ccc(N(C)C(=O)N2CCC(C(=O)c3ccc(C)cc3)CC2)cc1 [Compound A5, 4-(4-methyl-benzoyl)-piperidine-1-carboxylic acid (4-methoxy-phenyl)-methylamide] | 3 to 50 |
| COc1ccc(C(=O)C2CCN(C(=O)N(C)c3ccc(OC)cc3)CC2)cc1 [Compound A6, 4-(4-methoxy-benzoyl)-piperidine-1-carboxylic acid (4-methoxy-phenyl)methyl-amide] | 3 to 50 |
| COc1ccc(N(C)C(=O)N2CCC(C(=O)c3cccc(F)c3)CC2)cc1 [Compound A7, 4-(3-fluoro-benzoyl)-piperidine-1-carboxylic acid (4-methoxy-phenyl)-methylamide] | 3 to 50 |
| COc1ccc(N(C)C(=O)N2CCC(C(=O)c3ccc(F)cc3)CC2)cc1 [Compound A8, 4-(4-fluoro-benzoyl)-piperidine-1-carboxylic acid (4-methoxy-phenyl)-methylamide] | 3 to 50 |
| CN(C(=O)N1CCC(C(=O)c2ccccc2)CC1)c1ccc(F)cc1 [Compound A13, 4-benzoyl-piperidine-1-carboxylic acid (4-fluoro-phenyl)-methyl-amide] | 3 to 50 |
| CCN(C(=O)N1CCC(C(=O)c2ccccc2)CC1)c1ccc(OC)cc1 [Compound A14, 4-benzoyl-piperidine-1-carboxylic acid ethyl-(4-methoxy-phenyl)-amide] | 3 to 50 |
| COc1ccc(N(CCO)C(=O)N2CCC(C(=O)c3ccccc3)CC2)cc1 [Compound A15, 4-benzoyl-piperidine-1-carboxylic acid (2-hydroxy-ethyl)-(4-methoxy-phenyl)amide] | 3 to 50 |
| O=C(c1ccccc1)C1CCN(C(=O)N2CCc3ccccc32)CC1 [Compound A16, (4-benzoyl-piperidin-1-yl)-(2,3-dihydro-indol-1-yl)-methanone] | 3 to 50 |
| Cc1ccc(C(=O)C2CCN(C(=O)N3CCc4ccccc43)CC2)cc1 [Compound A17, (2,3-dihydro-indol-1-yl)-[4-(4-methyl-benzoyl)-piperidin-1-yl]-methanone] | 3 to 50 |
| COc1ccc(C(=O)C2CCN(C(=O)N3CCc4ccccc43)CC2)cc1 [Compound A18, (2,3-dihydro-indol-1-yl)-[4-(4-methoxy-benzoyl)-piperidin-1-yl]-methanone] | 3 to 50 |
| CCN(C(=O)N1CCC(C(=O)c2ccc(OC)c(C)c2)CC1)c1ccc(OC)cc1 [Compound A24, 4-(4-methoxy-3-methyl-benzoyl)-piperidine-1-carboxylic acid ethyl-(4-methoxy-phenyl)-amide] | 3 to 50 |
| COc1ccc(N(C)C(=O)N2CCC(C(=O)c3cccc(C)c3)CC2)cc1 [Compound A25, 4-(3-methyl-benzoyl)-piperidine-1-carboxylic acid (4-methoxy-phenyl)methyl-amide] | 3 to 50 |
| CCN(C(=O)N1CCC(C(=O)c2cccc(C)c2)CC1)c1ccc(OC)cc1 [Compound A26, 4-(3-methyl-benzoyl)-piperidine-1-carboxylic acid ethyl-(4-methoxy-phenyl)amide] | 3 to 50 |
| COc1ccc(N(C)C(=O)N2CCC(C(=O)c3cccc(OC)c3)CC2)cc1 [Compound A27, 4-(3-methoxy-benzoyl)-piperidine-1-carboxylic acid (4-methoxy-phenyl)methyl-amide] | 3 to 50 |
| CCN(C(=O)N1CCC(C(=O)c2cccc(OC)c2)CC1)c1ccc(OC)cc1 [Compound A28, 4-(3-methoxy-benzoyl)-piperidine-1-carboxylic acid ethyl-(4-methoxy-phenyl)amide] | 3 to 50 |
| COc1ccc(N(C)C(=O)N2CCC(C(=O)c3ccc(OC)c(F)c3)CC2)cc1 [Compound A29, 4-(3-fluoro-4-methoxy-benzoyl)-piperidine-1-carboxylic acid (4-methoxy-phenyl)-methyl-amide] | 3 to 50 |
| CN(C(=O)N1CCC(C(=O)c2ccc(NS(C)(=O)=O)cc2)CC1)c1ccccc1 [Compound A38, 4-(4-methanesulfonylamino-benzoyl)-piperidine-1-carboxylic acid methyl-phenyl-amide] | 3 to 50 |
| CCOC(=O)CN(C(=O)N1CCC(C(=O)c2ccc(OC)cc2)CC1)c1ccccc1 [Compound A40, {[4-(4-methoxy-benzoyl)-piperidine-1-carbonyl]-phenyl-amino}-acetic acid ethyl ester] | 3 to 50 |
